# Source: US20110045100A1, “Antimalarial Quinolines and Methods of Use Thereof” (GEORGETOWN UNIVERSITY, priority 2008, published 2011)
# Read-outs that look alike come from different tables or passages of the source.
# Key:
# [1] = system: Dd2 (chloroquine resistant strain of P. falciparum); test: SYBR Green I antiplasmodial assay, strain Dd2; type: cell-based, Plasmodium falciparum
# Excerpt: (§1) Bennett T. N.; Paguio, M.; Gligorijevic, B.; Seudieu, C.; Kosar, A. D.; Davidson, E.; Roepe, P. D. Novel, rapid, and inexpensive cell-based quantification of antimalarial drug efficacy. Antimicrob. Agents Chemother. 2004, 48, 1807-1810; Smilkstein, M.; Sriwilaijaroen, N.; Kelly, J. X.; Wilairat, P.; Riscoe, M. Simple and inexpensive fluorescence-based technique for high-throughput antimalarial drug screening. Antimicrob. Agents Chemother. 2004, 48, 1803-1806; and Johnson, J. D.; Dennull, R. A.; Gerena, L.; Lopez-Sanchez, M.; Roncal, N. E.; Waters, N.C. Assessment and continued validation of the malaria SYBR green I-based fluorescence assay for use in malaria drug screening. Antimicrob. Agents Chemother. 2007, 51, 1926-1933. […] Drake, N. L.; Creech, H. J.; Garman, J. A.; Haywood, S. T.; Peck, R. M.; van Hook, J. O.; Walton, E. Synthetic antimalrials. The preparation of certain 4-aminoquinolines. J. Am. Chem. Soc. […] Trans. R. Soc. Trop. Med. Hyg. […] J. Parasitol. 1983, 69, 97-105. The selectivity index provides a quantitative measure of the antimalarial activity against CQR strains relative to that against sensitive strains and thus indicates promising drug discovery leads. […] This can be combined with the introduction of a third basic amino function which should further favor accumulation of the drug within the acidic food vacuole of the parasite.
# The antiplasmodial activity of these compounds was measured versus a CQS (HB3) and a CQR (Dd2) strain using a standardized, inexpensive assay based on SYBR Green I intercalation. Bennett T. N.; Paguio, M.; Gligorijevic, B.; Seudieu, C.; Kosar, A. D.; Davidson, E.; Roepe, P. D. Antimicrob. Agents Chemother. 2004, 48, 1807-1810; Smilkstein, M.; Sriwilaijaroen, N.; Kelly, J. X.; Wilairat, P.; Riscoe, M. Antimicrob. Agents Chemother. 2004, 48, 1803-1806; and Johnson, J. D.; Dennull, R. A.; Gerena, L.; Lopez-Sanchez, M.; Roncal, N. E.; Waters, N.C. Antimicrob. Agents Chemother. 2007, 51, 1926-1933. […] De, D.; Krogstad, F. M.; Cogswell, F. B.; Krogstad, D. J. Am. J. Trop. Med. Hyg. 1996, 55, 579-583. […] The basic tertiary amino function in the side chain is commonly believed to be crucial for the accumulation of the drug within the acidic food DV.
# (§2) Drug activities were assessed and IC50 were quantified essentially as described previously. Delarue, S.; Girault, S.; Maes, L.; Debreu-Fontaine, M. A.; Labaeid, M.; Grellier, P.; Sergheraert, C. Synthesis and in vitro and in vivo antimalarial activity of new 4-anilinoquinolines. J. Med. Chem. 2001, 44, 2827-2833; and O'Neill, P. M.; Willock, D. J.; Hawley, S. R.; Bray, P. G.; Storr, R. C.; Ward, S. A.; Park, B. K. Synthesis, antimalarial activity, and molecular modeling of tebuquine analogues. J. Med. Chem. 1997, 40, 437-448. The aminoquinolines were diluted using complete media under sterile conditions and plated in a 96 well plate format. Sorbitol synchronized cultures were utilized with >95% of the parasites at the ring stage. Cultures were diluted to give a working stock of 0.5% parasitemia and 2% hematocrit (final hematocrit 1% & 0.5% Parasitemia). The plates were incubated for 72 h at 37° C. After 72 h, 50 μL of 10×SYBR green I dye was added to each well, and the plate was incubated for 1 h at 37° C. Fluorescence was measured at 530 nm (490 nm excitation) using a spectra geminiEM plate reader. Data analysis was performed using sigma plot 9.0 software after downloading data in Excel format.
# [2] = system: FCB (CQR strain of P. falciparum); test: SYBR Green I antiplasmodial assay, strain FCB; type: cell-based, Plasmodium falciparum; conditions: Plasmodium falciparum, read-out: IC50 for FCB
# Excerpt: as §1, §2
# monomeric heme = test: Heme affinity measurement, monomeric heme; type: binding; conditions: acidic 40% DMSO
# Description: To test whether binding to Hz precursors is also altered for the 4S and 4O derivatives, binding constants were measured as previously described for both μ-oxo dimeric and monomeric heme (FIG. 25). […] J. Am. Chem. Soc. 1988, 110, 4391-4395; Egan, T. J.; Mavuso, W. W.; Ross, D. C.; Marques, H. M. Thermodynamic factors controlling the interaction of quinoline antimalarial drugs with ferriprotoporphyrin IX. J. Inorg. Biochem. 1997, 68, 137-145; and Egan, T. J.; Ncokazi, K. K. Effects of solvent composition and ionic strength on the interaction of quinoline antimalarials with ferriprotoporphyrin IX. J. Inorg. Biochem. 2004, 98, 144-152. Due to the instability of monomeric heme in aqueous solution, the affinity to monomer measured by conventional absorbance experiments can only be estimated using 40% DMSO in water as solvent. Egan, T. J.; Ncokazi, K. K. Effects of solvent composition and ionic strength on the interaction of quinoline antimalarials with ferriprotoporphyrin IX. J. Inorg. Biochem. 2004, 98, 144-152. At appropriately acidic solution pH (≦5.0) FPIX heme is primarily monomeric, whereas at pH 7, appreciable dimer is formed. As shown (FIG. 25), CQ and compounds 88, 93, and 98 all have poor affinity for monomeric heme in acidic 40% DMSO. To further test if CQ interacts with monomeric heme, T1 measurements of the CQ protons were made with samples containing 10 mM CQ and 2 mM hemin chloride in 40% DMSO at pH 5.0. Although the lines are broadened in this solution due to paramagnetic susceptibility, the measured T1's indicate only weak paramagnetic relaxation. For example, the measured T1 for CQ proton 1 in this sample is 0.70 s, whereas at pH 7.0 the T1 for the same proton is 0.039 s.
# To measure affinity for monomeric heme, 1.2 mM stock solutions of hemin (sodium salt from Sigma-Aldrich) were prepared in DMSO and stored as […] aliquots. 4.8 μM working solutions were prepared in 40% DMSO/phosphate buffer (fresh stocks prepared daily). Stock solutions of CQ and CQ analogues (diphosphate or dihydrochloride salts) were prepared in 40% DMSO/phosphate buffer and used for the titration experiments (all drugs dilutions were prepared in the same buffer).
# 1.5 mL cuvettes containing freshly prepared samples of 4.8 μM heme were titrated with increasing concentrations (0-50 μM) of drug. Following each addition, the sample was mixed and heme absorbance then recorded at 402 nm. Control experiments were performed by titrating 4.8 μM heme with similar volumes of solvent and no drug present. […] The absorbance peak analysis was done using Microsoft excel and Ka were extracted from the ΔAbs402 plots via Scatchard analysis using Microsoft Excel and Sigma plot 9.0.1 software.
# [3] = system: HB3 (chloroquine sensitive strain of P. falciparum); test: SYBR Green I antiplasmodial assay, strain HB3; type: cell-based, Plasmodium falciparum; conditions: CQS strain HB3; read-out: IC50 against HB3
# Excerpt: Bennett T. N.; Paguio, M.; Gligorijevic, B.; Seudieu, C.; Kosar, A. D.; Davidson, E.; Roepe, P. D. Novel, rapid, and inexpensive cell-based quantification of antimalarial drug efficacy. Antimicrob. Agents Chemother. 2004, 48, 1807-1810; Smilkstein, M.; Sriwilaijaroen, N.; Kelly, J. X.; Wilairat, P.; Riscoe, M. Simple and inexpensive fluorescence-based technique for high-throughput antimalarial drug screening. Antimicrob. Agents Chemother. 2004, 48, 1803-1806; and Johnson, J. D.; Dennull, R. A.; Gerena, L.; Lopez-Sanchez, M.; Roncal, N. E.; Waters, N.C. Assessment and continued validation of the malaria SYBR green I-based fluorescence assay for use in malaria drug screening. Antimicrob. Agents Chemother. 2007, 51, 1926-1933. […] The selectivity index provides a quantitative measure of the antimalarial activity against CQR strains relative to that against sensitive strains and thus indicates promising drug discovery leads. […]
# The antiplasmodial activity of these compounds was measured versus a CQS (HB3) and a CQR (Dd2) strain using a standardized, inexpensive assay based on SYBR Green I intercalation. […]
# Drug activities were assessed and IC50 were quantified essentially as described previously. […] Fluorescence was measured at 530 nm (490 nm excitation) using a spectra geminiEM plate reader. […]
# μ-oxo dimeric heme = test: Heme affinity measurement, μ-oxo dimeric heme; type: binding; conditions: aqueous solution
# Description: 1.5 mL cuvettes containing freshly prepared samples of 4.8 μM heme were titrated with increasing concentrations (0-50 μM) of drug. Following each addition, the sample was mixed and heme absorbance then recorded at 402 nm. Control experiments were performed by titrating 4.8 μM heme with similar volumes of solvent and no drug present. To measure affinity for μ-oxo dimeric heme, the procedure was similar except hemin was first converted to dimeric form in mild alkaline solution, followed by titration to pH 7.5 using Hepes buffer. The absorbance peak analysis was done using Microsoft excel and Ka were extracted from the ΔAbs402 plots via Scatchard analysis using Microsoft Excel and Sigma plot 9.0.1 software.
# hemozoin (Hz) formation = test: Quantification of in vitro Hz formation inhibition; type: biochemical
# Description: A stock solution of 5 mM hemin (Fluka) in 0.1M NaOH was prepared and stored as small aliquots at -20° C. Fresh aliquots were thawed daily to room temperature before use. Lecithin stock solutions were prepared by dissolving in distilled water to 10 mg/ml and similarly stored. 0.5 M propionate was used to buffer experiments in the pH range 5.2-5.6. The assay mixture (1 mL volumes) contained: 200 μL lecithin solution ([…] final) 20 μL hematin (100 μM final concentration) 20 μ[…] propionate buffer (X) μL drug (dependant on the concentration required 0-1000 μM). The addition sequence involved first adding the lecithin followed by heme, HCl, propionate buffer and finally the drug. Each sample was prepared in triplicate. Following addition of the reagents the samples were incubated at 37° C. with constant shaking for 18 h. After 18 h the assay was stopped by spinning the samples at 13,200 rpm for 10 minutes followed by carefully aspirating off the supernatant. The pellet was then resuspended in 50 mM bicarbonate buffer pH 9.0 (1 mL) and gently shaken at room temperature for 30 minutes to dissolve uncrystallized heme. The samples were then centrifuged as above and the supernatant removed. […] The samples were then dissolved in 0.1M NaOH to solubilize β-hematin to free heme and β-hematin formed was then quantified via heme absorbance at 402 nm. Calibration curves were prepared by titrating increasing amounts of heme in the same solvent vs. absorbance at 402 nm.
# [4] = pKa determination by acid/base titration; type: physicochemical; conditions: distilled water; measured; read-out: quinolyl N pKa
# Description: SPARC pKa calculator is an online tool developed at the University of Georgia by S. W. Karickhoff, L. A. Carreira and S. H. Hilal. Experimental pKa were determined using an Accumet AB15 pH meter and a calomel electrode. 10 mM solutions of the drugs (as dibasic salts) were made in distilled H2O and titrated at room temperature (23.0±2.0° C.) using 0.1 M NaOH. Titration plots were generated and pKa's extracted via inflection points from the second derivative plots; (Δ^2pH/ΔV^2) vs. V, where V represents the volume of the titrant added and ΔV is the volume increment.
# [5] = system: CQS (HB3, GCO3) and CQR (Dd2, FCB) strains of P. falciparum; test: SYBR Green I antiplasmodial assay, several CQS and CQR strains; type: cell-based, Plasmodium falciparum
# Excerpt: as §1
# Bennett T. N.; Paguio, M.; Gligorijevic, B.; Seudieu, C.; Kosar, A. D.; Davidson, E.; Roepe, P. D. Novel, rapid, and inexpensive cell-based quantification of antimalarial drug efficacy. Antimicrob. Agents Chemother. 2004, 48, 1807-1810; Smilkstein, M.; Sriwilaijaroen, N.; Kelly, J. X.; Wilairat, P.; Riscoe, M. Simple and inexpensive fluorescence-based technique for high-throughput antimalarial drug screening. Antimicrob. Agents Chemother. 2004, 48, 1803-1806; and Johnson, J. D.; Dennull, R. A.; Gerena, L.; Lopez-Sanchez, M.; Roncal, N. E.; Waters, N.C. Assessment and continued validation of the malaria SYBR green I-based fluorescence assay for use in malaria drug screening. Antimicrob. Agents Chemother. 2007, 51, 1926-1933.
# Drug activities were assessed and IC50 were quantified essentially as described previously. Delarue, S.; Girault, S.; Maes, L.; Debreu-Fontaine, M. A.; Labaeid, M.; Grellier, P.; Sergheraert, C. Synthesis and in vitro and in vivo antimalarial activity of new 4-anilinoquinolines. J. Med. Chem. 2001, 44, 2827-2833; and O'Neill, P. M.; Willock, D. J.; Hawley, S. R.; Bray, P. G.; Storr, R. C.; Ward, S. A.; Park, B. K. Synthesis, antimalarial activity, and molecular modeling of tebuquine analogues. J. Med. Chem. 1997, 40, 437-448.
smiles,measurement,setting,value
"CCN(CC)CCCC(C)Nc1ccnc2cc(Cl)ccc12 (stereo not drawn) [CQ, chloroquine, reference compound]",IC50,"[1]; Plasmodium falciparum, DD2, read-out: IC50 against Dd2",140 nM
same,IC50,[2],170 nM
same,affinity for monomeric heme,monomeric heme,poor affinity
CCN(CCNc1ccnc2cc(Cl)ccc12)CCNS(=O)(=O)c1cccc2c(N(C)C)cccc12 [compound 23],IC50,[3],17.5 nM
same,IC50,"[1]; CQR strain Dd2, read-out: IC50 against Dd2",22.7 nM
same,activity against the CQ resistant strain Dd2 in comparison with CQ,[1]; compared with CQ,significantly more potent
"CCN(CC)CCCCNc1ccnc2cc(Cl)ccc12 [compound 88, N-(7-Chloro-4-quinolyl)-N′,N′-diethyl-1,4-diaminobutane]",affinity for monomeric heme,monomeric heme,poor affinity
same,affinity (association constant Ka) vs. μ-oxo dimer,μ-oxo dimeric heme,quite similar
"CCN(CC)CCCCSc1ccnc2cc(Cl)ccc12 [compound 98, S-(7-Chloro-4-quinolyl)-4-(N,N-diethylamino)butanethiol]",affinity for monomeric heme,monomeric heme,poor affinity
same,affinity (association constant Ka) vs. μ-oxo dimer,μ-oxo dimeric heme,quite similar
same,ability to inhibit Hz formation vs. that measured for CQ and 8,hemozoin (Hz) formation; FIG. 26,significantly lower
same,pKa,[4],4.1
"CCN(CC)CCCC(CCCN(CC)CC)Oc1ccnc2cc(Cl)ccc12 [compound 102, 7-Chloro-4-(1′,7′-bis(diethylamino)-4′-heptoxy)quinoline]",activity vs. both CQR and CQS strains relative to 93,[5]; FIG. 23,improved activity
same,fold lower IC50 relative to 98,[5]; strains Dd2 and FCB,10 fold
same,inhibition of Hz formation relative to monobasic 4O derivative 13,hemozoin (Hz) formation,more potent inhibitor of Hz formation
